Our source for the miosis, myopic inclination and pupillary reaction values is patent US20090197930A1, “Eyedrops” (priority 2006, published 2009).

Structures are written as SMILES.

For the series the following is noted: administered at high concentration.

For the molecule `O=C1CN(/N=C/c2ccc(-c3ccc([N+](=O)[O-])cc3)o2)C(=O)[N-]1.[Na+]` [dantrolene, Dantrolene sodium], the miosis result is given as “strong miosis”, the myopic inclination entry is “myopic inclination is stronger” and the pupillary reaction result is given as “pupillary reaction becomes dull”.
